Experimental data taken from the NIST ThermoML archive (doi:10.1021/je900503p).
Several values for one entry are separate records, joined by “and”; a condition that tells them apart may be missing. Equal entries are not always repeated. Numbers after ± are expanded uncertainties.

Key:
[1] = relative permittivity at zero frequency (dimensionless); conditions: 101 kPa, Liquid, Dekameter
[2] = 101 kPa, Liquid
[3] = refractive index (Na D-line) (dimensionless); conditions: 101.33 kPa, Liquid

Row | SMILES | relative permittivity at zero frequency ([1]; 293.15 K) | relative permittivity at zero frequency ([1]; 298.15 K) | relative permittivity at zero frequency ([1]; 303.15 K) | relative permittivity at zero frequency ([1]; 313.15 K) | mass density ([2]; 293.15 K) [kg/m3] | mass density ([2]; 298.15 K) [kg/m3] | mass density ([2]; 303.15 K) [kg/m3] | mass density ([2]; 313.15 K) | refractive index ([3]; 293.15 K) | refractive index ([3]; 298.15 K) | refractive index ([3]; 303.15 K) | refractive index ([3]; 313.15 K)
1 | CCCCO [butan-1-ol] | 18.26 ± 0.06 | 17.54 ± 0.06 | 16.89 ± 0.06 | 15.45 ± 0.06 | 809.52 ± 0.43 | 805.58 ± 0.43 | 801.92 ± 0.44 | 794.26 ± 0.45 kg/m3 | 1.3992 ± 0.0012 | 1.3972 ± 0.0012 | 1.3963 ± 0.0012 | 1.392 ± 0.0012
2 | CCC(C)O (stereo unspecified) [butan-2-ol] | 17.51 ± 0.06 | 16.58 ± 0.06 | 15.75 ± 0.06 | 14.44 ± 0.06 | 805.54 ± 0.46 | 802.06 ± 0.47 | 798.45 ± 0.47 | 790.07 ± 0.48 kg/m3 | 1.3992 ± 0.0012 | 1.3954 ± 0.0012 | 1.3948 ± 0.0012 | 1.391 ± 0.0012
3 | O=C1CCCO1 [γ-butyrolactone] | 42.34 ± 0.06 and 42.81 ± 0.06 | 41.64 ± 0.06 | 41.1 ± 0.06 | 39.92 ± 0.06 | 1128.79 ± 0.58 | 1123.75 ± 0.57 | 1118.79 ± 0.56 | 1121.76 ± 0.56 kg/m3 and 1108.88 ± 0.54 kg/m3 | 1.437 ± 0.0013 | 1.4356 ± 0.0013 | 1.4334 ± 0.0013 | 1.429 ± 0.0013
